Measurements published in patent publication US10640457B2, “Histone acetyltransferase activators and uses thereof” (The Trustees of Columbia University in the City of New York, priority 2009, dated 2020).
Values joined by “and” are separate entries in the source; they are usually repeats but may differ in a detail not shown here. Equal values may be shown once. “Also recorded” adds a separate entry of the source.

What was measured:
[1] = Pharmacokinetics and brain penetration, plasma and brain by LC-MS/MS; assay type: in vivo, BALB/c mice
Method: After i.p. and i.v. administration at 20 mg/kg to BALB/c mice, plasma and brain concentrations were determined by LC-MS/MS.

[2] = tested on: histone acetylation (ACH3) in hippocampus, cortex, liver; assay: Western blot of histone acetylation in mouse tissues after compound administration; assay type: in vivo, mice
Description: The mice liver and hippocampus were extracted 1 hr after treatment. […] In addition to the mouse liver and hippocampus, the mouse cortex was also extracted.
The BBB was by-passed by giving it through cannulas implanted onto the dorsal hippocampus. Both the hippocampus and cortex were extracted at 2 hrs or 4 hrs after treatment.
Two and four hrs after its administration, the mice were sacrificed and hippocampi were extracted. […] Purity was verified through Nuclear Magnetic Resonance (NMR). […] Hippocampus extraction was made at 3 different time points (0.5, 1 and 2 hrs post treatment). We then ran a western blotting for ACH3.
The compound was i.p. administered at 20 mg/Kg, mice were sacrificed 30 min later, and hippocampi were removed and quickly frozen for WB analysis. […] (each herein incorporated by reference in its entirety). […]

YAC128 mice = assay: Open field in YAC128 Huntington's Disease mice; assay type: in vivo; conditions: for effect of treatment on total locomotion (distance traveled, 30 min): age 6 mo., YF2 5 mg/kg
Method: Animals: Mouse models of Huntington's Disease (YAC128) versus wildtype (WT) littermates.
Open field: This assay is a common assay used to monitor total spontaneous locomotor activity and exploratory behavior in mouse models of Huntington's disease (HD). The spontaneous locomotor activity of the animals was measured using an automated photo-beam open-field system (Med-Associates, St Albans, Vt.). Mice were placed individually in the center of a clear open-field chamber (27.9 cm×27.9 cm×20 cm), and their horizontal and vertical activities were measured immediately for 30 min with three 16-beam UR arrays. Locomotor activity was assessed as the distance traveled in 5-min intervals. The number of mice typically used for open field range from 12 to 15 mice.

HDAC5FL = HDAC5FL (Homo sapiens, UniProt Q9UQL6); assay: HDAC5FL fluorogenic activity assay; conditions: Repeat1/Repeat2, listed as OA2
Sirtuin 1 = biological target: T1, Sirtuin 1 (Homo sapiens, UniProt Q96EB6); assay: Sirtuin 1 fluorogenic activity assay; conditions: for % Activity: Repeat1/Repeat2, listed as OA2
T1 sequence (Q96EB6 1-747): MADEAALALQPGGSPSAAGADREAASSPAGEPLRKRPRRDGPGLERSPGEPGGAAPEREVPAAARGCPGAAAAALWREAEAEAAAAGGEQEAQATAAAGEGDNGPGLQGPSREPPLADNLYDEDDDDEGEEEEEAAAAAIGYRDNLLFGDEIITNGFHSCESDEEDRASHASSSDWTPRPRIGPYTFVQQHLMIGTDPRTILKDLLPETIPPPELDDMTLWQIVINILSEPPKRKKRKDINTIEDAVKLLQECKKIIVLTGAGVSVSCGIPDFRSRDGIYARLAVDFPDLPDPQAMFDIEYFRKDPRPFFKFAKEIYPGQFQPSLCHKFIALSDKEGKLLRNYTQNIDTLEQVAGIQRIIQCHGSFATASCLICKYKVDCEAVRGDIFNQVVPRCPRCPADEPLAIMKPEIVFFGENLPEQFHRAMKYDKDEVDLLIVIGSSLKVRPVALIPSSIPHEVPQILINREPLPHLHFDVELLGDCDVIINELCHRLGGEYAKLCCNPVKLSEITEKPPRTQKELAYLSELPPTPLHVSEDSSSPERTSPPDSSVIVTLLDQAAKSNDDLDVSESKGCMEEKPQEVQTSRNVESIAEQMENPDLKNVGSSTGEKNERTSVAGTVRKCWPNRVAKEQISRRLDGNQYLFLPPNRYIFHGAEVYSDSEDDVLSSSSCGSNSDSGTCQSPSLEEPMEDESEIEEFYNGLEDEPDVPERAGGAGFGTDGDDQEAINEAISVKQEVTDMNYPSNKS

Sirtuin 2 = biological target: T2, Sirtuin 2 (Homo sapiens, UniProt Q8IXJ6); assay: Sirtuin 2 fluorogenic activity assay; conditions: for % Activity: Repeat1/Repeat2, listed as OA2
T2 sequence (Q8IXJ6 1-389): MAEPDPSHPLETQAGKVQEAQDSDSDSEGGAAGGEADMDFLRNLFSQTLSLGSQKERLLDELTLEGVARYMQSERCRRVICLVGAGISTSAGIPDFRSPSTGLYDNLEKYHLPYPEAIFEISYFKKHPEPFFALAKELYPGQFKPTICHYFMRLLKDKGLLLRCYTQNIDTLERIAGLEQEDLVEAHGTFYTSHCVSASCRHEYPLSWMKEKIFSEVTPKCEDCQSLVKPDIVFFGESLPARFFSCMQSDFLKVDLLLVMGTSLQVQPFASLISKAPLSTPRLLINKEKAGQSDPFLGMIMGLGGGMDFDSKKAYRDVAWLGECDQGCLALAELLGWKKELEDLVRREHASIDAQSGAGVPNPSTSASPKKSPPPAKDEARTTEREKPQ

[3] = IP administration 20 mg/kg, brain
[4] = IV administration 20 mg/kg, brain

Sequence of HDAC5FL (Q9UQL6 whole entry): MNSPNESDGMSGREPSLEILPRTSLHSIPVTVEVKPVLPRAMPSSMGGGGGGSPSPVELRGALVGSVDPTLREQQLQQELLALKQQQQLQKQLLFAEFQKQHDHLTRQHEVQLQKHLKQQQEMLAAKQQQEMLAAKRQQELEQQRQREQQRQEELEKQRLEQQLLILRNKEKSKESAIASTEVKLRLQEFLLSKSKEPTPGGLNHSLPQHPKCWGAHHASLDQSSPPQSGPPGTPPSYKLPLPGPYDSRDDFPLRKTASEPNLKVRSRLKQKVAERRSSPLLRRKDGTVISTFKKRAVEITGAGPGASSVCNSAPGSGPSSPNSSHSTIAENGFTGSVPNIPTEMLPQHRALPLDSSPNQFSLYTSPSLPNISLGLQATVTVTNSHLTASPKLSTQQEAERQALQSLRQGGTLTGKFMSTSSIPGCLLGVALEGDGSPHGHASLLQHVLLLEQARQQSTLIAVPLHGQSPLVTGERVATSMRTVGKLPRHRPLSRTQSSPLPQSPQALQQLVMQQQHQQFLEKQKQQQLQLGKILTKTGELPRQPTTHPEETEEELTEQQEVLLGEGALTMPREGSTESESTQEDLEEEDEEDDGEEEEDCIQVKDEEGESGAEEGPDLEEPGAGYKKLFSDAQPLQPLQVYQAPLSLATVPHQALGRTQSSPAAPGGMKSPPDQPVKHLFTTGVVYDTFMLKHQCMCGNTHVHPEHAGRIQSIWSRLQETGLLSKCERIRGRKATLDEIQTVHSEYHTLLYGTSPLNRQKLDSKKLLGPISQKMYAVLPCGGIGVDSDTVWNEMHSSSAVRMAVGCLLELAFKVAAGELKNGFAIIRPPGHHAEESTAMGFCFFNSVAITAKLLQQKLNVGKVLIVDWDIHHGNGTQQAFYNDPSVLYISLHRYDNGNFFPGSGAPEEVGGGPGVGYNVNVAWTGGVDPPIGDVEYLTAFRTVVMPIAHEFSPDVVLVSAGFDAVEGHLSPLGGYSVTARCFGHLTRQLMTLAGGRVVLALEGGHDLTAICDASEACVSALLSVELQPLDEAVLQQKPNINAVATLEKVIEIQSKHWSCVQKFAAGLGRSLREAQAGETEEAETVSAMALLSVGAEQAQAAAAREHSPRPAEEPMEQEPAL

CCOc1cccc(OCCN(C)C)c1C(=O)Nc1ccc(Cl)c(C(F)(F)F)c1 [YF2]
AUC0-t [1, 3]: 6493 ng·h/g | AUC0-∞ [1, 3]: 6564 ng·h/g | F [1, 3]: 29.2% | F ([1]; IP administration 20 mg/kg, plasma): 41.0% | AUC0-t [1, 4]: 22222 ng·h/g | AUC0-∞ [1, 4]: 22581 ng·h/g | acetylation of H3K4, H3K9, H3K14, H4K5, H4K8, H4K12, H4K16 and H2B in hippocampus ([2]; 20 mg/Kg i.p., sacrificed 30 min later): increased | ACH3 in hippocampus ([2]; 50 mg/kg i.p., 2 and 4 hrs after administration): increase | ACH3 levels in hippocampus ([2]; 5, 10, 20 mg/Kg i.p. in saline, 0.5, 1 and 2 hrs, except 1 hr-10 mg/kg): dramatically increased | histone acetylation levels following Aβ elevation ([2]; after foot shock, FIG. 80): restores | histone acetylation levels following Aβ elevation ([2]; basal conditions, FIG. 79): restores | crossing of the blood brain barrier (BBB) ([2]; concluded from brain histone acetylation after i.p. administration): able to cross the BBB; also recorded: crosses the BBB and the cell membrane | Aβ-induced decrease in H3 acetylation levels in hippocampus ([2]; i.p. 5 mg/kg, Aβ 200 nM infused onto dorsal hippocampi, 5 mg/kg): able to rescue; also recorded: rescued | histone 3 acetylation levels of the hippocampus ([2]; i.p., FIG. 1): increases | effect of treatment on total rearing or vertical movements (YAC128 mice; female YAC128 mice): no significant effect | effect of treatment on total locomotion (distance traveled, 30 min) (YAC128 mice; female mice): diminish significantly (i.e. worsen) | effect of treatment on total rearing or vertical movements (YAC128 mice; male YAC128 mice): no significant effect | effect of treatment on total locomotion (distance traveled, 30 min) (YAC128 mice; male mice): no significant effect | % Activity (HDAC5FL; OA2 Log[nM] 0.5): 99.80% and 92.90% | % Activity (HDAC5FL; OA2 Log[nM] 1.0): 102.59% and 97.50% | % Activity (HDAC5FL; OA2 Log[nM] 1.5): 103.20% and 104.10% | % Activity (HDAC5FL; OA2 Log[nM] 2.0): 108.64% and 106.80% | % Activity (HDAC5FL; OA2 Log[nM] 2.5): 108.60% and 107.17% | % Activity (HDAC5FL; OA2 Log[nM] 3.0): 105.76% and 99.80% | % Activity (HDAC5FL; OA2 Log[nM] 3.5): 101.30% and 99.30% | % Activity (HDAC5FL; OA2 Log[nM] 4.0): 104.91% and 104.82% | % Activity (HDAC5FL; OA2 Log[nM] 4.5): 95.40% and 94.11% | % Activity (HDAC5FL; OA2 Log[nM] 5.3): 68.63% and 94.13% | IC50 (Sirtuin 1): > 200 µM | % Activity (Sirtuin 1; OA2 Log[nM] 0.5): 94.26% and 99.92% | % Activity (Sirtuin 1; OA2 Log[nM] 1.0): 87.25% and 99.42% | % Activity (Sirtuin 1; OA2 Log[nM] 1.5): 100.27% and 87.48% | % Activity (Sirtuin 1; OA2 Log[nM] 2.0): 97.98% and 92.56% | % Activity (Sirtuin 1; OA2 Log[nM] 2.5): 101.56% and 100.81% | % Activity (Sirtuin 1; OA2 Log[nM] 3.0): 108.86% and 94.87% | % Activity (Sirtuin 1; OA2 Log[nM] 3.5): 96.93% and 100.23% | % Activity (Sirtuin 1; OA2 Log[nM] 4.0): 96.69% and 89.85% | % Activity (Sirtuin 1; OA2 Log[nM] 4.5): 98.83% and 93.79% | % Activity (Sirtuin 1; OA2 Log[nM] 5.3): 99.02% and 100.98% | IC50 (Sirtuin 2): > 200 µM | % Activity (Sirtuin 2; OA2 Log[nM] 0.5): 97.71% and 101.89% | % Activity (Sirtuin 2; OA2 Log[nM] 1.0): 96.21% and 97.38% | % Activity (Sirtuin 2; OA2 Log[nM] 1.5): 98.59% and 101.33% | % Activity (Sirtuin 2; OA2 Log[nM] 2.0): 94.20% and 99.91% | % Activity (Sirtuin 2; OA2 Log[nM] 2.5): 94.74% and 96.43% | % Activity (Sirtuin 2; OA2 Log[nM] 3.0): 94.53% and 98.73% | % Activity (Sirtuin 2; OA2 Log[nM] 3.5): 96.80% and 98.23% | % Activity (Sirtuin 2; OA2 Log[nM] 4.0): 97.71% and 98.83% | % Activity (Sirtuin 2; OA2 Log[nM] 4.5): 92.45% and 95.14% | % Activity (Sirtuin 2; OA2 Log[nM] 5.3): 98.64% and 99.53%
